Consider 10 compounds from patent US5622944A, “Testosterone prodrugs for improved drug delivery” (Affymax Technologies N.V., priority 1995, dated 1997).

Data set [1] is classed as in vitro ADME, mouse. Conditions: for Flux, active electrotransport (ET): murine skin, active cells (ETm), 10 mM donor, 100 uA/cm^2, 6 h, 32° C.; for Enhancement in in vitro electrotransport skin flux compared to testosterone: hairless mouse skin, vs unmodified testosterone, 'nearly 10-fold enhancement or greater'. The method, then: In vitro electrotransport of testosterone/chemical modifier complexes across hairless mouse skin was evaluated as described in Example 28. The experiments were conducted using modified Valia-Chien cells having 1.0 ml donor and 2.5 ml receptor cells. Anodic transport was carried out using a silver wire-based salt bridge in the donor compartment and a silver chloride cathode in the receptor. Cathodic transport was effected by reversing the electrode configuration. The cells were connected in series and a constant current and temperature were supplied to each cell.
After a predetermined period of time (6 h), aliquots were removed from the receiver phase for immediate analysis by HPLC to determine cumulative flux.
The electrotransport of testosterone/chemical modifier complexes was achieved using modified Valia-Chien cells (1.0 ml donor and 2.5 ml receptor cells). Full thickness, hairless mouse skin (Charles River Labs, Wilmington, Mass.) was soaked for one hour in phosphate buffered saline (PBS, pH=7.4) before placing between each compartment (dermal side of skin facing toward receptor). One passive (P1:data) and two or more (ETm :data) active cells were used to screen each compound.
A 10 mM (1 ml) aqueous solution of testosterone drug/prodrug was placed in the donor (unstirred) compartment and the receptor (stirred) was filled with 2.5 ml of PBS. In order to check for egress due to e.g. damaged skin, a zero hour sample of receptor ([…]) was taken one half hour after the drug solution was placed in the donor compartment. Replacement fluid of equal sample volume was added to the receptor compartment immediately after samples were taken.
Anodic electrotransport was achieved using a silver wire (immersed in a polyvinylalcohol-based salt bridge to minimize junction potential) in the donor compartment and a AgCl cathode in the receptor. […] The electrotransport cells were connected in series and constant current (100 uA/cm^2, […] for a skin area of 0.64 cm^2) and temperature (32° C.) were supplied to each cell. After six hours of active/passive transport, aliquots (200 ul) of the receptor were sampled and immediately analyzed by HPLC.
A standard plot of peak area and concentration for each compound was constructed using HPLC. The peak areas of the samples were determined and the concentrations calculated using the standard data. Cumulative flux was calculated using Quickbasic and reported in nmol/cm^2 /hr.

Data set [2] can be described thus: in vitro. The settings on record: human, dermal fibroblasts, MTT; for CC50 at 2 h: IC50 2 h (cytotoxicity), 2 h incubation; for CC50 at 16 h: IC50 16 h (cytotoxicity), 16 h incubation. The data set is classed as cell-based, human. The method, then: As discussed above, the chemical modifier, when present in the subject in its free or released form, and in appropriately administered amounts, should preferably be non-toxic. Additionally, any further in vivo degradation products of the chemical modifier should be non-toxic, as well. Table 2 provides in vitro relative cytotoxicity data for a number of testosterone/chemical modifier complexes, prepared in accordance with the invention. The cytotoxicity assessment was carried out by examining the viability of human dermal fibroblasts in the presence of a number of testosterone/chemical modifier complexes in accordance with the present invention. Details of the experimental protocol are summarized in Example 27.
The viability of human dermal fibroblasts in the presence of the 17-hydroxy sterol/chemical modifier compounds was assayed using MTT (3-[4,5-dimethylthiazol-2-yl]-2,5-diphenyltetrazolium bromide) reduction to formazan by mitochondrial enzymes as an indicator of cytotoxicity (Swisher, et al.). Confluent fibroblast cells were incubated for 2 or 16 hours in the presence of increasing concentrations of drug complex. At the end of the incubation period, medium was replaced for 4 hours by medium containing the tetrazolium salt, MTT. Metabolism of MTT to a blue formazan was quantitated by spectrophotometry at 540 nm.

The nature of data set [3]: Water solubility (H2O sol). The settings on record: H2O sol.
Data set [4] in a line: in vitro. Format: in vitro ADME. The settings on record: 37° C.; for half-life: human, serum. The method, then: The hydrolytic activity of the sterol prodrug may be evaluated by studies of the chemical or enzymatic conversion of the prodrug to the unmodified parent compound, as described in Example 26.
Generally, the sterol/chemical modifier complex is dissolved in a minimum amount of a suitable solvent, such as ethanol, and the resulting solution is added to a sample of human serum. Following incubation, aliquots are then removed at various time points and analyzed to determine the extent of hydrolysis. Table I herein lists the representative serum half-lives of a number of testosterone prodrugs according to the present invention.
The rates of conversion are readily determined, for example by spectrophotometric methods or by gas-liquid or high performance liquid chromatography. Half-lives and other kinetic parameters may then be calculated using standard techniques.
Determination of Testosterone Prodrug Hydrolysis in Serum
Stock solutions (6 mM) of the testosterone prodrugs were prepared in ethanol (dissolution was accomplished by vortexing, sonication, or warming at 37° C., as needed). If required for dissolution, one drop of a co-solvent such as dimethylsulfoxide, dimethylformamide or methanol was added. (Acetonitrile is undesirable because it deactivates the serum enzymes).
HPLC separation methods were established for each study by dilution of the above stock solutions (6 μl) in acetonitrile (1 ml) to form 36 μM solutions. Samples (10 μl) were injected onto a Nucleosil 5C8 column (250×4 mm ID) fitted with an additional guard column (11×4 mm ID) and eluted with a mobile phase of approximately 65% HPLC grade water and 35% trifluoroacetic acid in acetonitrile (0.1% TFA in acetonitrile). Exact proportions of the mobile phase eluents were adjusted in each case to give optimum separation and run times.
Freshly defrosted human serum (3 ml, Sigma) was warmed at 37° C. for five minutes and then the testosterone prodrug stock solution (60 μl) was added with vortexing. […] The aliquots were added to 800 μl of 2% zinc sulfate solution in a 1.5 ml disposable microcentrifuge tube, vortexed immediately and centrifuged at 14,000 RPM for 3 minutes. The supernatants (10 μl) were injected onto the HPLC and peak areas used to determine the percent of parent drug formed or percent of prodrug remaining. Serum blanks were prepared similarly by addition of serum to the zinc sulfate solution, followed by centrifugation. Initial (time=0) samples were prepared by adding serum to the zinc sulfate solution, followed by addition of the complex and separation by centrifugation. The time=0 samples, as well as the original stock solutions, were also used to assess the stability of the complex in the absence of enzyme. Half-lives were determined using the following equation : […]
and plotting time (x ordinate) versus the natural logarithm of percent remaining prodrug (y ordinate) to obtain the slope (m) and the y intercept (b).

Where [5] appears, read: footnote 1: prodrug remaining, no testosterone formed.

Counter-ions that a name gives are not always drawn. Where only a bound is given, the exact number is not on record here.

Compound `C[C@]12CC[C@H]3[C@@H](CCC4=CC(=O)CC[C@@]43C)[C@@H]1CC[C@@H]2OC(=O)C[N+](C)(C)C` [Code 2.2, testosterone-17β-betainoyl ester, bromide salt] showed a Degradation in the data set “Degradation (%/d)” of 0 %/d. In addition, in data set [1], the “Flux, active electrotransport (ET)” value came out at 7.9 ± 4.1 nmol/cm^2 /hr. In “in vitro [2]”, this compound showed a CC50 at 2 h of 2300 µM and a CC50 at 16 h of 650 µM. In addition, the solubility in data set [3] is 10 mg/mL. The half-life in the data set “in vitro [4]” (HPLC) was 14 h.
With `C[C@]12CC[C@H]3[C@@H](CCC4=CC(=O)CC[C@@]43C)[C@@H]1CC[C@@H]2OC(=O)OCOC(=O)CCCCC[N+](C)(C)C` [Code 3.2, testosterone-17β-[6-(N,N,N-trimethylammonio)hexanoyloxy-methyl]carbonate iodide salt], the Degradation in “Degradation (%/d)” is given as 77 %/d. Also, the “Flux, active electrotransport (ET)” value in data set [1] is listed as 4.8 ± 0.6 nmol/cm^2 /hr. Further, in the data set “in vitro [2]”, half-maximal cytotoxicity (CC50 at 2 h) was put at 615 µM and half-maximal cytotoxicity (CC50 at 16 h) was put at 406 µM. The same compound had a solubility in data set [3] of 20 mg/mL. In addition, the half-life in “in vitro [4]” (HPLC) was found to be 0.217 h.
In the case of `C[C@]12CC[C@H]3[C@@H](CCC4=CC(=O)CC[C@@]43C)[C@@H]1CC[C@@H]2OC(=O)CCC[N+](C)(C)C` [Code 2.3], the Degradation in “Degradation (%/d)” was found to be 0 %/d. Also, the “Flux, active electrotransport (ET)” value in data set [1] was 2.0 ± 0.8 nmol/cm^2 /hr. In “in vitro [2]”, this compound came in with a CC50 at 2 h of 653 µM and a CC50 at 16 h of 172 µM. This compound also registered a solubility in data set [3] of 20 mg/mL. Moreover, in the data set “in vitro [4]” (setting [5]), the half-life is about 15 h.
In the data set “Degradation (%/d)”, `C[n+]1cccc(C(=O)O[C@H]2CC[C@H]3[C@@H]4CCC5=CC(=O)CC[C@]5(C)[C@H]4CC[C@]23C)c1` [Code 2.8] had a Degradation of 0 %/d. Moreover, in data set [1], the “Flux, active electrotransport (ET)” value was 3.1 ± 1.2 nmol/cm^2 /hr. In the data set “in vitro [2]”, this compound yielded a half-maximal cytotoxic concentration (CC50) at 2 h of 598 µM and a CC50 at 16 h of 492 µM. In data set [3], this compound registered a solubility of 0.8 mg/mL. The compound further showed a half-life in “in vitro [4]” (HPLC) of 25.5 h.
`C[C@]12CC[C@H]3[C@@H](CCC4=CC(=O)CC[C@@]43C)[C@@H]1CC[C@@H]2OC(=O)Oc1ccc(CC[N+](C)(C)C)cc1` [Code 3.4, testosterone-17β-candicine carbonate, iodide salt]: the Degradation in “Degradation (%/d)” is given as 1 %/d. For the same compound, in data set [1], the “Flux, active electrotransport (ET)” value is on record as 0 nmol/cm^2 /hr. In “in vitro [2]”, this compound displayed a half-maximal cytotoxic concentration (CC50) at 2 h of 544 µM and a CC50 at 16 h of 44.6 µM. For the same compound, the solubility in data set [3] is 0.1 mg/mL. The compound further showed a half-life in “in vitro [4]” (HPLC) of 5.8 h.
`C[C@]12CC[C@H]3[C@@H](CCC4=CC(=O)CC[C@@]43C)[C@@H]1CC[C@@H]2OC(=O)CC[N+](C)(C)C` [Code 2.5, testosterone-17β-(N,N,N-trimethyl-β-alaninyl ester), bromide salt]: the Degradation in “Degradation (%/d)” is listed as 0 %/d. Also, in data set [1], the “Enhancement in in vitro electrotransport skin flux compared to testosterone” value was at least 10 fold and the “Flux, active electrotransport (ET)” value amounted to 18.0 ± 2.4 nmol/cm^2 /hr. In “in vitro [2]”, the CC50 at 2 h was over 600 µM and it took 329 µM to reach half-maximal cytotoxicity (CC50 at 16 h). The compound further gave a solubility in data set [3] of 0.3 mg/mL. Besides, in the data set “in vitro [4]” (setting [5]), the half-life was about 0.167 h.
Consider `CC(=O)OC(CC(=O)O[C@H]1CC[C@H]2[C@@H]3CCC4=CC(=O)CC[C@]4(C)[C@H]3CC[C@]12C)C[N+](C)(C)C` (some centres unmarked) [Code 1.2], for which, in “Degradation (%/d)”, the Degradation is recorded as 0 %/d. The “Flux, active electrotransport (ET)” value in data set [1] is 7.3 ± 5.8 nmol/cm^2 /hr. Moreover, in the data set “in vitro [2]”, it took 91.6 µM to reach half-maximal cytotoxicity (CC50 at 2 h) and the CC50 at 16 h is 34.4 µM. The compound further yielded a solubility in data set [3] of 22 mg/mL. The half-life in “in vitro [4]” (HPLC) was 96 h.
With `C[C@]12CC[C@H]3[C@@H](CCC4=CC(=O)CC[C@@]43C)[C@@H]1CC[C@@H]2OC(=O)CCCC[N+](C)(C)C` [Code 2.4], the Degradation in the data set “Degradation (%/d)” was 0 %/d. In addition, the “Flux, active electrotransport (ET)” value in data set [1] was found to be 2.7 ± 1.1 nmol/cm^2 /hr. For the same compound, in the data set “in vitro [2]”, the cytotoxic concentration (CC50) at 2 h amounted to 609 µM and half-maximal cytotoxicity (CC50 at 16 h) was put at 568 µM. Besides, in data set [3], the concentration in solution (solubility) was 18 mg/mL. The half-life in the data set “in vitro [4]” (HPLC) was about 720 h.
`C[C@]12CC[C@H]3[C@@H](CCC4=CC(=O)CC[C@@]43C)[C@@H]1CC[C@@H]2OC(=O)C=CC[N+](C)(C)C` [Code 3.8, testosterone-17β-[(4-N,N,N-trimethylammonio) crotonate], chloride salt] yielded a Degradation in “Degradation (%/d)” of 0 %/d. For the same compound, in data set [1], the “Enhancement in in vitro electrotransport skin flux compared to testosterone” value was at least 10 fold and the “Flux, active electrotransport (ET)” value was determined as 9.4 ± 1.2 nmol/cm^2 /hr. In the data set “in vitro [2]”, the CC50 at 2 h was 2290 µM and the CC50 at 16 h was determined as 583 µM. Also, the solubility in data set [3] is 21 mg/mL. Further, the half-life in the data set “in vitro [4]” (HPLC) was 122 h.
With `COC(=O)[C@H](COC(=O)O[C@H]1CC[C@H]2[C@@H]3CCC4=CC(=O)CC[C@]4(C)[C@H]3CC[C@]12C)N(C)C` [Code 3.6, testosterone-17β-(N,N-dimethyl-L-serine methyl ester) carbonate, hydrochloride salt], the Degradation in “Degradation (%/d)” was 3.8 %/d. Also, in data set [1], the “Flux, active electrotransport (ET)” value is reported as 6.8 ± 0.3 nmol/cm^2 /hr. Moreover, in the data set “in vitro [2]”, the CC50 at 2 h turned out to be 224 µM and half-maximal cytotoxicity (CC50 at 16 h) was put at 157 µM. This compound also showed a solubility in data set [3] of 20 mg/mL. In addition, the Serum half-life in the data set “in vitro [4]” (human serum, HPLC, hydrochloride salt) was found to be 0.75 h.

The term CC50 denotes the concentration that lowers cell viability or growth by half. Low readings indicate harm at low concentration, high ones better tolerance by the cells. As a reminder, the solubility is the concentration that dissolves in the medium under given conditions. What is called half-life is how long it takes for the measured level to halve.
